We go through three molecules from ChEMBL document CHEMBL1944563, “Separation of Betti Reaction Product Enantiomers: Absolute Configuration and Inhibition of Botulinum Neurotoxin A” (ACS Med Chem Lett, 2011).

The term inhibition denotes the share of the control response that was lost under treatment. One may read the IC50 as the concentration needed to halve the response being measured. Higher therefore signals lower potency.

The target in experiment [1] is Botulinum neurotoxin type A (Clostridium botulinum (strain Hall / ATCC 3502 / NCTC 13319 / Type A)) (UniProt P0DPI1). Nature of the experiment: Inhibition of Clostridium botulinum Hall BoNT/A light chain using SNAP-25 (187 to 203) as substrate at 20 uM by HPLC analysis. As to conditions: Clostridium botulinum A str. Hall.
Botulinum neurotoxin type A (Clostridium botulinum (strain Hall / ATCC 3502 / NCTC 13319 / Type A)), sequence (P0DPI1 2-448 limits assumed): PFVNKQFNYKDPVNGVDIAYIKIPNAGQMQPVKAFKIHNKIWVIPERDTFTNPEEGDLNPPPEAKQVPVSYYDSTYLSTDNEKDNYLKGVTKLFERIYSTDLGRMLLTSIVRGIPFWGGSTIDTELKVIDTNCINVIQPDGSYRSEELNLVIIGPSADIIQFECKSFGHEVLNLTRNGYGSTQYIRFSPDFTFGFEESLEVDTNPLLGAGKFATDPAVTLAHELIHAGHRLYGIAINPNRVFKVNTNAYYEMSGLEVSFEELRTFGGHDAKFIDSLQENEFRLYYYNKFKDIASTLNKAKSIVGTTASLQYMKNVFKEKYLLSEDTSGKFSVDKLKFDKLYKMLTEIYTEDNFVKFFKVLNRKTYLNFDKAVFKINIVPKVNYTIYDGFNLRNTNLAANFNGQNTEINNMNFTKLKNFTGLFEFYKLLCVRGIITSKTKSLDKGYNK
The target is the same in experiment [2]. Nature of the experiment: Inhibition of Clostridium botulinum Hall BoNT/A light chain using SNAP-25 (187 to 203) as substrate at 5 uM by HPLC analysis. The settings on record: Clostridium botulinum A str. Hall.
Experiment [3] has as its target Botulinum neurotoxin type A (Clostridium botulinum (strain Hall / ATCC 3502 / NCTC 13319 / Type A), UniProt P0DPI1). Nature of the experiment: Inhibition of Clostridium botulinum Hall BoNT/A light chain using SNAP-25 (187 to 203) as substrate by HPLC analysis. The arrangement: species or system Clostridium botulinum A str. Hall.
Experiment [4] addresses Botulinum neurotoxin type A (Clostridium botulinum (strain Hall / ATCC 3502 / NCTC 13319 / Type A)) (UniProt P0DPI1). Nature of the experiment: Inhibition of Clostridium botulinum Hall BoNT/A-induced toxicity in mouse Neuro2a cells assessed as inhibition of SNAP25 substrate cleavage at 60 uM by Western blotting. It is filed as cell-based. The settings on record: Clostridium botulinum A str. Hall. (A western blot detects proteins with antibodies after separation by electrophoresis.)

The target is the same in experiment [5]. Nature of the experiment: Inhibition of Clostridium botulinum Hall BoNT/A-induced toxicity in mouse Neuro2a cells assessed as inhibition of SNAP25 substrate cleavage at 45 uM by Western blotting. The settings on record: Clostridium botulinum A str. Hall. It is filed as cell-based.
Experiment [6] has the same target. Nature of the experiment: Inhibition of Clostridium botulinum Hall BoNT/A-induced toxicity in mouse Neuro2a cells assessed as inhibition of SNAP25 substrate cleavage at 30 uM by Western blotting. Format: cell-based. The settings on record: Clostridium botulinum A str. Hall.
Experiment [7] has the same target. Nature of the experiment: Inhibition of Clostridium botulinum Hall BoNT/A-induced toxicity in mouse Neuro2a cells assessed as inhibition of SNAP25 substrate cleavage at 15 uM by Western blotting. The settings on record: Clostridium botulinum A str. Hall. It is filed as cell-based.
Experiment [8] shares this target. Nature of the experiment: Inhibition of Clostridium botulinum Hall BoNT/A-induced paralysis in mouse phrenic nerve hemidiaphragm assessed as time required for loss of 50% twitch tension at 2 uM. As to conditions: Clostridium botulinum A str. Hall.
Experiment [9] has the same target. Nature of the experiment: Inhibition of Clostridium botulinum Hall BoNT/A-induced paralysis in mouse phrenic nerve hemidiaphragm assessed as delay in paralytic half-time at 2 uM relative to control. The settings on record: Clostridium botulinum A str. Hall.

Botulinum neurotoxin type A, sequence (P0DPI1 2-448 limits assumed): as above

With `Oc1c([C@H](Nc2ccccn2)c2ccccc2)cc(Cl)c2cccnc12`, the inhibition in experiment [1] is 94%; in experiment [2], 90%; in experiment [4], 96%; in experiment [5], 94%; in experiment [6], 89%; in experiment [7] it was 56%. The molecule also yielded an IC50 in experiment [3] of 1100 nM. Besides, the TIME in experiment [8] was determined as 3.18 h. For the same molecule, in [9], the fold change (FC) was 3.
Consider `Oc1c(C(Nc2ccccn2)c2ccccc2)cc(Cl)c2cccnc12` (racemic), for which the inhibition worked out at 92% in experiment [1]; 88% in [2]; 91% in experiment [4]; 90% in experiment [5]; 74% in experiment [6]; 41% in experiment [7]. In experiment [3], this molecule gave an IC50 of 1500 nM.
As to `Oc1c([C@@H](Nc2ccccn2)c2ccccc2)cc(Cl)c2cccnc12`, the inhibition was determined as 91% in [1]; 90% in experiment [2]; 96% in experiment [4]; 93% in experiment [5]; 69% in [6]; 54% in [7]. For the same molecule, the IC50 in [3] was 1000 nM. For the same molecule, in [8], the TIME was 3.13 h. The fold change (FC) in [9] was 3.
